Measured values published in PMC5025780, “Copper(II) ions affect the gating dynamics of the 20S proteasome: a molecular and in cell study” (Scientific Reports, 2016).
Read-outs that look alike come from different tables or passages of the source.

Key:
[1] = target: T1, human 20S proteasome (hCP), T-L activity; test: T-L peptidase activity of isolated hCP (fluorogenic substrate); type: biochemical
T1 construct: purchased Boston Biochem (Cambridge, MA, USA)
Description: (§1) Purified human 20S proteasome (hCP) and the fluorogenic substrates Suc-LLVY-AMC, Z-Leu-Leu-Glu-AMC, and Ac-Arg-Leu-Arg-AMC used to assay the ChT-L, T-L, and C-L activity, were from Boston Biochem (Cambridge, MA, USA). Bathocuproinedisulfonic acid disodium salt (BCS), dithiothreitol (DTT), N-Acetyl-L-Cysteine (NAC), Sodium dodecylsulphate (SDS) as well as CuCl2 and Zn(NO3)2 were from Sigma-Aldrich (St. Louis, MO). Proteasome inhibitors Epoxomicin were obtained from Enzo Life Science. Wild type 20S proteasome isolated from Saccharomices Cerevisiae (yCP) and a mutant (α3ΔN) where nine residues of the N-terminal tail of the α3 subunit are deleted to provide a permanently open-gate conformations were isolated as described elsewhere.
(§2) Peptidase activities of hCP (2 nM) were assayed on in 50 μL Tris 25 mM pH 7.6, at 37 °C with 100 μM of the fluorogenic substrate. hCP was incubated with Cu(II)/Zn(II) ions for 1 h prior activity assays. The fluorescence signal activated by peptide cleavage was recorded at 440 nm (excitation at 360 nm) for 45 min, by a Varioskan (Thermo^©) plate reader in 384 multiwell plates. Three replicates were performed for each data point. Data were reported as normalized percentages of residual activity. The potency (IC50) was calculated from the value of the dose response plot corresponding at a fractional activity of 50%. The IC50 values were determined using a non linear fit of experimental data in according to equation: […]
(§3) The midpoint of this function occurs at a fractional activity value of 50%, corresponding to half inhibition of the target enzyme. The IC50 values and their standard errors were deduced from the fitting. To evaluate if copper is a reversible PI, we measured the ChT-L activity of hCP incubated with Cu(II) (2.20 μM) before and after addition of an equimolar amount of EDTA.

[2] = test system: T2, α3ΔN mutant 20S proteasome; test: ChT-L peptidase activity of α3ΔN open-gate mutant yeast proteasome; type: biochemical, Saccharomices Cerevisiae; settings: permanently open gate mutant
T2 construct: made in house; host or cells: Saccharomyces cerevisiae (mutant strain)
Description: All the experimental data collected so far reconcile with the hypothesis that Cu(II) ions have a direct influence on the gating mechanisms of the 20S proteasome. To further validate this hypothesis, we assayed the effect of Cu(II) ions on the ChT-L peptidase activity of a mutant proteasome (α3ΔN) where deletion of the first nine N terminal residues of the α3 subunit results in permanently open gate conformation. […] It is worthy to remark here that several histidine residues are located at the entrance of the channel and, more specifically in the proximity of the N-terminal tail of the α3 subunit (Fig. 4 panels B and C). It is tempting to speculate that these His residues may play a major role in driving the Copper(II) –mediated gating dynamics.
as §1, with “Wild type 20S proteasome isolated from Saccharomices Cerevisiae (yCP) and a mutant (α3ΔN) where nine residues of the N-terminal tail of the α3 subunit are deleted to provide a permanently open-gate conformations were isolated as described elsewhere.” left out

[3] = test system: T3, 26S/20S proteasome assembly in Hela cells; test: Non-denaturing gel with in-gel peptidase activity of HeLa lysates (20S/26S ratio); type: cell-based, human; settings: 24 h
T3 construct: endogenous in cells; host or cells: HeLa cells
Method: Proteasome-enriched fractions were subjected to non denaturing native gel electrophoresis, as described elsewhere. Briefly, 100 μg of fractionated Hela cells lysates, pretreated for 24 h with 0, 20 or 80 μM Cu(II), were run on a 3–12% non-denaturing, gradient polyacrylamide gel (Invitrogen, Carlsbad, CA) according to a protocol reported elsewhere. hCP (2 μM) treated for 2 h with 0 μM, 20 μM and 80 μM of Cu (II) was used as reference control. Peptidolytic activity of proteasome-enriched fractions from cell lysates was evaluated after incubating the gels in a Suc-LLVY-AMC substrate dissolved in 50 mM Tris pH 8.0, 5 mM MgCl2, 1 mM DTT, 1 mM ATP, at 37 °C for 15 min. Proteasome bands were identified by the release of highly fluorescent free AMC which allowed us to identify the proteasome holo and subcomplexes. Images of the gels were acquired by Chemidoc (Biorad), and fluorescent bands were quantified by using the Image J software.

HeLa cells = test system: HeLa cells; parameters: method as in PMID 9057888, PMID 21584299; settings: Cu(II)-supplemented media up to 100 μM; cited from earlier work
[4] = target: T4, human 20S proteasome (hCP), ChT-L activity; test: ChT-L peptidase activity of isolated hCP (Suc-LLVY-AMC fluorogenic substrate); type: biochemical
T4 construct: purchased Boston Biochem (Cambridge, MA, USA)
Description: as §1, §2, §3

[5] = test system: ubiquitinated proteins in Hela cells; test: Western blot of polyubiquitinated proteins in HeLa cells; type: cell-based, human; settings: 20 and 80 μM Cu(II), 24 hours
Method: After 24 h of copper(II) treatment (20–80 μM), HeLa cells were washed with cold PBS, and lysed with 100 μL of RIPA buffer for 5 minutes at 4 °C, sonicated and centrifuged for 10 minutes at 4 °C (1400 rpm). The protein content of lysates is quantified using the BCA method, (protein assay kit, BioRad). Western blotting analysis for polyUb chains was performed on total protein extracts ([…]). Samples were loaded onto 4–12% bis-Tris gel, (Invitrogen). After separation, proteins were transferred onto a nitrocellulose membrane. Membranes were blotted at 4 °C O/N with the following primary antibodies: rabbit monoclonal anti-polyubiquitin (linkage specific K48) (1:2500, Abcam), and mouse anti-β-actin (1:1000, Sigma Aldrich). Secondary goat anti-rabbit labeled with IRDye 680 (1:25.000 Li-COR Biosciences) and goat anti-mouse labeled with IRDye 800 (1:25.000 Li-COR Biosciences) were used at RT for 45 min. Hybridization signals were detected with the Odyssey Infrared Imaging System (LI-COR Biosciences).

[Cl][Cu][Cl] [Cu(II), CuCl2]
IC50 ([1]; hCP 2 nM, 1 h preincubation with ions, Tris 25 mM pH 7.6, 37 °C, no SDS, read-out: IC50 T-L): 1450 nM
IC50 ([1]; in the presence of 0.018% SDS, other conditions unmodified, read-out: IC50 T-L, Cu(II) + SDS): 1350 nM
Effect on ChT-L peptidase activity of α3ΔN mutant [2]: did not affect proteasome activity
Intensity of CP, CP-RP and CP-RP2 bands ([3]; 20 μM Cu(II)): does not vary with respect to control
Intensity of CP, CP-RP1 and CP-RP2 bands ([3]; 80 μM Cu(II)): the amount of CP increases
HeLa cell growth (HeLa cells): not inhibited
IC50 ([4]; hCP 2 nM, 1 h preincubation with ions, Tris 25 mM pH 7.6, 37 °C, no SDS, read-out: IC50 ChT-L): 1190 nM
Recovery of ChT-L activity after EDTA addition (reversibility) ([4]; hCP incubated with Cu(II) 2.20 μM, equimolar EDTA added): did not evidence any recovery of the ChT-L activity
IC50 ([4]; in the presence of 0.018% SDS, other conditions unmodified, read-out: IC50 ChT-L, Cu(II) + SDS): 730 nM
Accumulation of ubiquitinated proteins [5]: enhanced the accumulation of ubiquitinated proteins
